Laboratory results published in patent publication US4521422A, “Aryl and heteroaryl[7-(aryl and heteroaryl)pyrazolo[1,5-a]pyrimidin-3-yl]methanones” (American Cyanamid Company, priority 1984, dated 1985).

Tests used:
[1] = system: Clonic Seizures Caused by Pentylenetetrazole in Rats; experiment: Protection against clonic seizures caused by pentylenetetrazole in rats; assay type: in vivo; settings: Rattus norvegicus, oral or i.p., read-out: % of Rats Protected; for responders at 25 mg/kg: pentylenetetrazole 23 mg/kg i.v. at 30 or 60 min
Outline: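 Rats (at least 4 per group) given single or graded oral or intraperitoneal doses in starch/PEG/Polysorbate 80 vehicle. After 30 or 60 min, pentylenetetrazole 23 mg/kg i.v. was given, a dose expected to induce clonic seizures in 99% of unprotected rats. Protection from convulsions was scored.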

[2] = system: Nonconditioned Passive Avoidance in Rats; experiment: Nonconditioned passive avoidance (conflict) test in rats; assay type: in vivo, rat (Wistar); set-up: key: Active: considered active if the number of shocks received by the test group is significantly higher than the control group by the Mann-Witney U test; settings: oral or i.p.
Description: Another test which has been used to assess anti-anxiety effects is a nonconditioned passive avoidance procedure described by [J. R. Vogel, B. Beer and D. E. Clody, "A Simple and Reliable Conflict Procedure for Testing Anti-Anxiety Agents", Psychopharmacologia, 21, 1-7 (1971)]. A conflict situation is induced in rats by a modification of this method.
Groups of 6 naive, Wistar strain rats, weighing 200-240 g each were deprived of water for 48 hours and food for 24 hours. The test compounds were administered in single or graded, oral or intraperitoneal doses, suspended in a 2% starch vehicle containing 0.5% v/v polyethylene glycol and one drop of polysorbate 80. Control animals received the vehicle alone. At 30 to 60 minutes each rat was placed in an individual plexiglass chamber. Water was available ad libitum from a tap located in the rear of the chamber. A 0.7 milliampere DC shocking current was established between the stainless steel grid floor and the tap. After 20 licks of non-shocked drinking, a shock was delivered for 2 seconds and then further shocks were delivered on a ratio of one shock for 2 seconds for every 20 licks. This was continued for a total of 3 minutes. The number of shocks taken by each rat during the 3 minute interval was recorded and compared to a control group. […]

[3] = system: Brain-Specific Receptors of Rats; experiment: Inhibition of the binding of 3H-benzodiazepine to brain-specific receptors of rats; set-up: species or system rat (Wistar); settings: 3H-diazepam 1.5 nM or 3H-flunitrazepam 1.0 nM; rat cortex P2 fraction; test concentration not given
[4] = system: Locomotor Activity in Rats; experiment: Effects on locomotor activity in rats; assay type: in vivo; settings: Rattus norvegicus, 1 h; dose causing 50% decrease in mean activity counts vs vehicle; oral, 60 min; read-out: MDD50
Description: Groups of 6 rats were treated orally with vehicle (5 ml/kg) or graded doses of the test compounds. Sixty minutes later, individual rats were placed in Actophotometers and locomotor activity was measured for 5 minutes after a brief (30 sec.) habituation period. Motor Activity Counts (number of crossings of the photo cells) were recorded for each rat, and mean activity counts were calculated for each treatment group. The dose causing a 50% decrease in mean activity counts compared with the vehicle group (MDD50) was calculated from a linear regression equation.

[5] = system: Ethanol Induced Narcosis in Rats; experiment: Effects on the duration of ethanol induced narcosis in rats; assay type: in vivo; settings: Rattus norvegicus; lowest dose causing significant (p≤0.05) increase in duration of narcosis; oral, 60 min before 3.2 g/kg i.p. ethanol; read-out: MED
Description: The sedative-hypnotic properties of the novel compounds of the instant invention have been established by their effect on the duration of ethanol induced narcosis in rats as a measurement of sedation. Groups of at least 8 rats were administered graded oral doses of the test compounds or vehicle 60 minutes prior to intraperitoneal treatment with 3.2 g/kg ethanol. Rats were then observed continuously for 180 minutes for the incidence and duration of ethanol induced narcosis. […] The duration of narcosis was the total time the rat remained in a supine position. The MED [lowest dose necessary to cause a significant (p≤0.05, two-tailed Student's t test) increase in the duration of ethanol induced narcosis in rats] of representative compounds of this invention are shown in Table IV. Test compounds were dissolved or suspended in a 2% aqueous starch suspension containing 5% polyethyleneglycol 400 and a drop of Tween®80; ethanol (95%) was adjusted to final concentration (V:V) with 0.85% saline. All treatments were administered in a constant volume of 5 ml/kg.

[6] = system: Ability of Rats to Remain on an Inclined Screen; experiment: Effect on ability of rats to remain on an inclined screen; assay type: in vivo; settings: Rattus norvegicus, 65 min; dose necessary to cause 50% of animals to fall off; oral; 60° screen, 65 min after dosing
Description: The first test measures the effect of representative compounds on the ability of rats to remain on an inclined screen. Groups of at least 6 rats were treated orally with graded doses of test compounds or vehicle and placed on a wire mesh screen (inclined at an angle of 60° from a horizontal level) 65 minutes later. The number of rats falling off the screen within 30 minutes was recorded. The ED50 (dose necessary to cause 50% of the animals tested to fall off) was calculated according to the linear arc-sine transformation method of Finney, D. J. Statistical Methods in Biological Assay, 2nd Ed., Hafner, N. Y., 1964, pp. 454 ff. Compounds were dissolved or suspended in a 2% aqueous starch suspension containing 5% polyethylene glycol 400 and a drop of polysorbate 80, and administered in a constant volume of 5 ml/kg.

Compound	responders at 25 mg/kg [1] [%]	Result (nonconditioned passive avoidance) ([2]; dose 25.0 mg/kg)	% Inhibition [3] [%]	ED50 [4] [mg/kg]	minimal effective dose [5] [mg/kg]	ED50 [6] [mg/kg]	Result (nonconditioned passive avoidance) ([2]; dose 12.5 mg/kg)	responders at 12.5 mg/kg ([1]; dose 12.5 mg/kg, pentylenetetrazole 23 mg/kg i.v.) [%]
O=C(c1ccccn1)c1cnn2c(-c3ccncc3)ccnc12 [2-pyridinyl[7-(4-pyridinyl)pyrazolo[1,5-a]pyrimidin-3-yl]methanone]	100	Active	29	101				
O=C(c1ccccn1)c1cnn2c(-c3cccnc3)ccnc12 [2-Pyridinyl[7-(3-pyridinyl)pyrazolo[1,5-a]pyrimidin-3-yl]methanone]	75	Active	98					
O=C(c1ccccc1Cl)c1cnn2c(-c3cccnc3)ccnc12 [(2-chlorophenyl)[7-(3-pyridinyl)pyrazolo[1,5-a]pyrimidin-3-yl]methanone]	100	Active	24		4			
O=C(c1ccccc1)c1cnn2c(-c3ccncc3)ccnc12 [phenyl[7-(4-pyridinyl)pyrazolo[1,5-a]pyrimidin-3-yl]methanone]	100	Active		21.2	8	9.9		
Cc1cnc2c(C(=O)c3ccccc3)cnn2c1-c1ccncc1 [[6-methyl-7-(4-pyridinyl)pyrazolo[1,5-a]pyrimidin-3-yl]phenyl-methanone]	100	Active	56					
O=C(c1ccccn1)c1cnn2c(-c3cccc(C(F)(F)F)c3)ccnc12 [2-pyridinyl[7-[3-(trifluoromethyl)phenyl]pyrazolo[1,5-a]pyrimidin-3-yl]methanone]	100	Active	93	7		6.9		
Cc1ccc(C(=O)c2cnn3c(-c4cccnc4)ccnc23)cc1 [(4-Methylphenyl)[7-(3-pyridinyl)pyrazolo[1,5-a]pyrimidin-3-yl]methanone]	100	Active	56	13.2		11.1		
O=C(c1ccco1)c1cnn2c(-c3ccncc3)ccnc12 [2-furanyl[7-(4-pyridinyl)pyrazolo[1,5-a]pyrimidin-3-yl]methanone]	25	Active	19					
COc1ccc(C(=O)c2cnn3c(-c4cccnc4)ccnc23)cc1 [(4-Methoxyphenyl)[7-(3-pyridinyl)pyrazolo[1,5-a]pyrimidin-3-yl]methanone]	100			10.5		11.9	Active	
O=C(c1ccc(F)cc1)c1cnn2c(-c3cccc(C(F)(F)F)c3)ccnc12 [(4-fluorophenyl)[7-[3-(trifluoromethyl)phenyl]pyrazolo[1,5-a]pyrimidin-3-yl]methanone]		Active	50					38
O=C(c1ccccc1)c1cnn2c(-c3cccc(C(F)(F)F)c3)ccnc12 [phenyl[7-[3-(trifluoromethyl)phenyl]pyrazolo[1,5-a]pyrimidin-3-yl]methanone]	100	Active	93	5.5		5.5		
O=C(c1ccco1)c1cnn2c(-c3cccc(C(F)(F)F)c3)ccnc12 [2-furanyl[7-[3-(trifluoromethyl)phenyl]pyrazolo[1,5-a]pyrimidin-3-yl]methanone]	100	Active	98		32			
O=C(c1cccc(F)c1)c1cnn2c(-c3cccnc3)ccnc12 [(3-fluorophenyl)[7-(3-pyridinyl)pyrazolo[1,5-a]pyrimidin-3-yl]methanone]	100	Active	20					
O=C(c1cccs1)c1cnn2c(-c3cccc(C(F)(F)F)c3)ccnc12 [2-thienyl[7-[3-(trifluoromethyl)phenyl]pyrazolo[1,5-a]pyrimidin-3-yl]methanone]	100	Active	99					
Cc1cccc(C(=O)c2cnn3c(-c4cccnc4)ccnc23)c1 [(3-methylphenyl)[7-(3-pyridinyl)pyrazolo[1,5-a]pyrimidin-3-yl]methanone]	100	Active	70					
O=C(c1ccc(F)cc1)c1cnn2c(-c3ccc(F)cc3)ccnc12 [(4-fluorophenyl)[7-(4-fluorophenyl)pyrazolo[1,5-a]pyrimidin-3-yl]methanone]	75	Active	34					
O=C(c1ccccn1)c1cnn2c(-c3ccc(F)cc3)ccnc12 [[7-(4-fluorophenyl)pyrazolo[1,5-a]pyrimidin-3-yl]-2-pyridinyl-methanone]	50	Active	64					
O=C(c1ccccc1)c1cnn2c(-c3cc[n+]([O-])cc3)ccnc12 [Phenyl[7-(4-pyridinyl)pyrazolo[1,5-a]pyrimidin-3-yl]methanone, pyridine-1-oxide]	100	Active	39					
O=C(c1ccoc1)c1cnn2c(-c3cccnc3)ccnc12 [3-furanyl[7-(3-pyridinyl)pyrazolo[1,5-a]pyrimidin-3-yl]methanone]	100	Active	77					
